Results on 4 compounds are retold here after PMC5063576, “High Potency VEGFRs/MET/FMS Triple Blockade by TAS-115 Concomitantly Suppresses Tumor Progression and Bone Destruction in Tumor-Induced Bone Disease Model with Lung Carcinoma Cells” (PLoS ONE, 2016).

pIC50: −log10 of the molar value.

Data set [1] concerns A549-Luc-BM1-implanted tibiae. Kind of data set: CD31 staining, microvessel density in bone lesion. In kind it is in vivo, BALB/c nude mice. The settings on record: 2 weeks oral; TAS-115 100 mg/kg, cabozantinib 15, crizotinib 100, sunitinib 40 mg/kg; vs control. Here is the method: (§1) On day 15, the mice were euthanized by cervical dislocation under isoflurane anesthesia, and their tibiae were collected. For CD31 staining, frozen sections (3 μm thick) were prepared using Kawamoto’s film method. Purified Rat Anti-Mouse CD31 (1:100, BD Pharmingen^TM) was detected using Simple Stain^TM Mouse MAX PO (Rat) (Nichirei) and 3,3’-diaminobenzidine (Dako, Glostrup, Denmark). For Ki-67 and TRAP staining, formalin-fixed paraffin-embedded sections (2 μm thick) were prepared. Anti-human Ki-67 Rabbit Monoclonal Antibody (1:50, Epitomics) was detected using the EnVisionTM^+ System (Dako). TRAP staining was performed using the TRAP/ALP Stain Kit (Wako Pure chemical Industries, Ltd.). To quantify each staining, whole slides were scanned under 20× magnification with the Aperio Scan-Scope XT Slide Scanner (Aperio Technologies, Inc., CA). To quantify CD31-positive microvessels as microvessel density (MVD, number/mm^2), four fields of tumor area per section excluding bone and necrotic tissue were analyzed by using Image-Pro Plus (Media Cybernetics, Inc., Carlsbad, CA). The mean values of the four areas were considered as the MVD of each animal. […] Ki-67-positive cells and total tumor cells were counted by using Image-Pro Plus. The Ki-67 index is expressed as a percentage (the number of Ki-67-positive tumor cells / the total number of the tumor cells × 100). The numbers of TRAP-positive osteoclasts were counted, and are expressed as the TRAP-positive osteoclast labeling index, (the number of TRAP-positive cells / the length of the boundary between tumor and trabecular bone (number/mm)). Cells that were TRAP-positive, had more than one nucleus, and were found on the surface of the bone, were identified as osteoclasts. The boundary length was calculated by Image-Pro Plus. All histopathological analyses were conducted in a blinded manner.

Data set [2] deals with TRAP-positive osteoclasts at tumor-bone boundary. Kind of data set: TRAP staining of A549-Luc-BM1-implanted tibiae, osteoclast number. In kind it is in vivo, BALB/c nude mice. The settings on record: 2 weeks oral; TAS-115 200, cabozantinib 15, sunitinib 40, crizotinib 100 mg/kg, combination; vs control. The method, then:
as §1, with “CA).” for “CA). The mean values of the four areas were considered as the MVD of each animal.”, “The numbers of TRAP-positive osteoclasts were counted, and are expressed as the TRAP-positive osteoclast labeling index, (the number of TRAP-positive cells / the length of the boundary between tumor and trabecular bone (number/mm)). Cells that were TRAP-positive, had more than one nucleus, and were found on the surface of the bone, were identified as osteoclasts.” left out, “All histopathological analyses were conducted in a blinded manner.” left out

Data set [3] has as its target T1, Recombinant human FMS dephosphorylated with lambda phosphatase (dephospho-rhFMS) (Homo sapiens, UniProt P07333).
T1 sequence (P07333 538-972): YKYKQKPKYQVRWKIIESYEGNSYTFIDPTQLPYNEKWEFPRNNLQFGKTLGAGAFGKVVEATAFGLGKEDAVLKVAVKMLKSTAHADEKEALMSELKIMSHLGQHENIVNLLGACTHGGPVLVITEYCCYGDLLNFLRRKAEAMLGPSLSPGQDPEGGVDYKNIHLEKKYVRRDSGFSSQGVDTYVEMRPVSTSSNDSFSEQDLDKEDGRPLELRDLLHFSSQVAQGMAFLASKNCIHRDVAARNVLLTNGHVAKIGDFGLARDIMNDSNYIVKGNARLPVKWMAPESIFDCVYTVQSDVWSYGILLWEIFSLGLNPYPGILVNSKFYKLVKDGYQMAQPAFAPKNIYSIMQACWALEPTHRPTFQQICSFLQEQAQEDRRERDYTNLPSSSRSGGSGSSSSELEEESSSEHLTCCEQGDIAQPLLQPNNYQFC
Kind of data set: In vitro kinase assay, recombinant dephospho-FMS (LANCE Ultra TR-FRET). The settings on record: 100 μM ATP. Format: biochemical. Here is the method: Enzyme inhibition studies were performed using LANCE® Ultra TR-FRET assay technology. Briefly, 0.03 μg/mL dephospho-rhFMS and 100 nM ULightTM-poly GT (4:1) (PerkinElmer) were mixed and incubated for 40 min at 25°C in 10 μL of reaction mixture containing 100 μM ATP, 15 mM tris (hydroxymethyl) aminomethane (Tris (pH 7.5)), 0.01% (v/v) Tween 20, 5 mM MgCl2, 2 mM dithiothreitol and various concentrations of the test compound. […] By referring to the TR-FRET signals of positive (no inhibitor) and negative (EDTA was added before the reaction was started) control wells, the percent inhibition of each well was calculated and the half-maximal inhibitory concentration (IC50) value was determined using a four-parameter sigmoidal equation. The assay of MET and VEGFR2 kinase activity was performed as described previously.

Data set [4] concerns A549-Luc-BM1 cells in the mouse tibia. Kind of data set: Tumor-induced bone disease model, intra-tibial A549-Luc-BM1, bioluminescence imaging. Format: in vivo, BALB/c nude mice. The settings on record: for tumor growth inhibition percentage (TGI): day 28, 4 weeks, oral once daily TAS-115 200 mg/kg, cabozantinib 15 mg/kg, sunitinib 40 mg/kg, crizotinib 100 mg/kg, ZA 0.2 mg/kg s.c. twice weekly. Here is the method: Tumor growth in the tibiae was monitored by bioluminescence imaging using an IVIS Lumina II Imaging System (PerkinElmer, MA). […] Images were analyzed using the Living Image 3.1 software (PerkinElmer). Total photon flux (TP) was calculated by summation of the photon flux of ventral and right lateral images. One week post tumor implantation, 8–9 animals were allocated to each experimental group by a stratified randomization method with SAS version 9.2 (SAS Institute Japan, Tokyo, Japan) using TP as an allocation parameter, following which drug treatment was then started. […] The doses of each drug were selected based on the maximum tolerated dose (MTD) in in-house studies (data not shown). […] Zoledronic acid (ZA) was subcutaneously injected twice weekly for 4 weeks at a dose of 0.2 mg/kg, which was a previously reported efficacious dose. The allocation day was set as day 0, and drug administration was initiated from day 1. As an indicator of changes in tumor growth during the dosing period, relative total photon flux (RTP), was calculated according to the following formula: RTPday n = (TP on each measurement day) / (TPday 0) × 100. TPday 0 is the TP on the allocation day.

The test system of data set [5] is FMS, ERK1/2 and AKT phosphorylation in MDBMs. Kind of data set: In vitro MDBM signaling, M-CSF-stimulated FMS phosphorylation. In kind it is cell-based, mouse. The settings on record: Western blotting, cabozantinib, crizotinib at 0.3 μM, sunitinib positive control compared with TAS-115. Here is the method:
For analysis of the expression and phosphorylation levels of FMS, MET and VEGFR2, MDBMs were cultured with hM-CSF (20000 U/mL) for 4 days (400000 cells/dish in Suspension Culture Dishes (Corning Inc., NY). The phosphorylation levels of FMS and downstream signaling molecules were then analyzed in these MDBMs following incubation for 1 hr with test compounds at the indicated concentration. The phosphorylation of MET or VEGFR2 was analyzed in these MDBMs following stimulation with rhHGF (100 ng/mL, 10 min) or rhVEGF (100 ng/mL, 5 min), respectively. After incubation, the MDBMs were harvested, the cells were lysed and target signaling proteins were detected by immunoblotting. For analysis of VEGFR2 and its phosphorylated form, the lysate was immunoprecipiated with an anti-VEGFR antibody prior to immunoblotting.

The test system of data set [6] is A549-Luc-BM1-implanted tibia. As to the kind of experiment: Bone morphometrical analyses by micro-CT. In kind it is in vivo, BALB/c nude mice. The settings on record: for A549-Luc-BM1-induced changes in bone parameters (BV, TV, BMD, vBMD): micro-CT after 4 weeks dosing, TAS-115 200, cabozantinib 15, sunitinib 40, crizotinib 100 mg/kg oral, vs control. The method, then: On day 29, the mice were euthanized by cervical dislocation under isoflurane anesthesia, and subsequently the A549-Luc-BM1-implanted tibia was removed and was fixed in 4% paraformaldehyde solution. Micro-CT imaging was performed by using Rm_CT2 (Rigaku corporation, Tokyo, Japan) with the following parameters: 90 kV, 160 μA, 3 min exposure, 10 mm field of view (20 μm voxel size). After scanning, 3D reconstruction was performed to produce a series of cross-sectional images by using specific software (3D Viewer Version 3.00.01, Rigaku corporation). In addition, bone mineral density (BMD) and 3D morphometrical primary parameters, including total volume (TV) and bone volume (BV), were calculated by using bone microstructure software (TRI/3D-BON-FCS64, Ratoc System Engineering, Tokyo, Japan). Volumetric BMD (vBMD), which has been reported to be a good index of osteoporosis, was calculated from primary parameters using the following formula: vBMD = BMD × BV / TV.

For data set [7], the system named is M-CSF dependent bone marrow macrophages (MDBMs). As to the kind of experiment: In vitro osteoclast differentiation assay (TRAP activity). In kind it is cell-based, mouse. The settings on record: MDBMs with hM-CSF and rhsRANKL for 4 days. The method, then:
To prepare macrophage colony-stimulating factor (M-CSF) dependent bone marrow macrophages (MDBMs), bone marrow cells were obtained from the femurs of male BALB/c mice (CLEA Japan) and adherent cells were cultured with human M-CSF (hM-CSF; 10000 U/mL) for 6 days. MDBMs were collected and cultured with hM-CSF (10000 U/mL) and recombinant human soluble RANKL (rhsRANKL)-GST (5 nM) for 4 days (25000 cells/well in a 96 well flat plate) for induction of differentiation into osteoclasts. Test compounds were then added to the culture media at the indicated concentration. TRAP activities were measured using the commercially available TRACP and ALP Assay Kit (TAKARA BIO INC).

Data set [8] can be described thus: Body weight change in the bone disease model. In kind it is in vivo, BALB/c nude mice. The settings on record: 4 weeks of treatment; TAS-115 200 mg/kg, crizotinib 100 mg/kg, sunitinib 40 mg/kg with crizotinib 100 mg/kg, oral once daily. Here is the method:
Changes in body weight (BW) during the dosing period were determined using body weight change (BWC; %) as an indicator, which was calculated using the following formula: BWC; % = 100 × ((BW on each measurement day)–(BWday 0)) / (BWday 0). BWday 0 is the BW on the allocation day. The schedule for the in vivo study is depicted in the Supporting Information (S1 Fig).

In a further data set the test system is A549-Luc-BM1 cells. As to the kind of experiment: Proliferation of A549-Luc-BM1 cells (CellTiter-Glo). In kind it is cell-based. The settings on record: Homo sapiens, 72 hr post drug addition, read-out: 50% growth inhibitory concentration (GI50) for A549-Luc-BM1 cells. The method, then: Supplementary file pone.0164830.s002.tif: S2 Fig The effect of TAS-115 on the proliferation of A549-Luc-BM1 cells. A549-Luc-BM1 cells were seeded on 96 well plates at a density of 10^3 cells/well in RPMI1640 containing 10% FBS. […] At 72 hr post drug addition, cell viability was determined using CellTiter-Glo^TM. The 50% growth inhibition (GI50) values were determined using SAS version 9.2. (TIF) Click here for additional data file.

For the compound `COc1cc2nccc(Oc3ccc(NC(=O)C4(C(=O)Nc5ccc(F)cc5)CC4)cc3)c2cc1OC` [Cabozantinib], the “microvessel density (MVD) within the tumor area in the bone lesion” value (from here on “microvessel density”) in data set [1] is reported as “significantly reduced”. Moreover, in data set [2], the “number of TRAP-positive osteoclasts at tumor-bone boundary” value is on record as “did not affect”. For the same compound, the pIC50 in data set [3] is 7.10. Further, in data set [4], the “tumor growth inhibition percentage (TGI)” value amounted to 73%. In addition, in data set [5], the “inhibition of M-CSF-stimulated phosphorylation of FMS, ERK1/2 and AKT (in words)” value (from here on “inhibition … (in words)”) is “moderate”. Besides, the “A549-Luc-BM1-induced changes in bone parameters (BV, TV, BMD, vBMD)” value (from here on “A549-Luc-BM1-induced changes”) in data set [6] is recorded as “significantly suppressed all of the changes”.
With `C[C@@H](Oc1cc(-c2cnn(C3CCNCC3)c2)cnc1N)c1c(Cl)ccc(F)c1Cl` [Crizotinib], the “microvessel density” value in data set [1] is “did not affect”. Besides, in data set [7], the “concentration that potently inhibited / markedly affected RANKL and M-CSF-induced mouse osteoclast formation” value worked out at 1 µM. The “effect on body weight” value in data set [8] is on record as “did suppress body weight gain”. Besides, in data set [4] (crizotinib 100 mg/kg oral once daily for 4 weeks), the “effect on tumor growth in the tibia (bioluminescence)” value is recorded as “did not impact on tumor growth at all”. Also, the “inhibition … (in words)” value in [5] was “moderate”. For the same compound, the “A549-Luc-BM1-induced changes” value in data set [6] is given as “did not affect any changes in the parameters”. The GI50 in the data set on A549-Luc-BM1 cells is 1.1 µM.
With `CCN(CC)CCNC(=O)c1c(C)[nH]c(/C=C2\C(=O)Nc3ccc(F)cc32)c1C` [Sunitinib], the “microvessel density” value in data set [1] was “significantly reduced”. Besides, in data set [4], the “tumor growth inhibition percentage (TGI)” value is 75%. For the same compound, the “inhibition … (in words)” value in data set [5] is on record as “comparable”. Also, in data set [6], the “A549-Luc-BM1-induced changes” value was “significantly inhibited A549-Luc-BM1-induced changes in BV and TV, but not in BMD or vBMD”.
For the compound `O=P(O)(O)C(O)(Cn1ccnc1)P(=O)(O)O` [ZA, zoledronic acid], the “tumor growth inhibition percentage (TGI)” value in data set [4] was 27%. The “total volume (TV) compared with the control group” value in data set [6] (micro-CT, ZA 0.2 mg/kg s.c. twice weekly for 4 weeks) is “significantly decreased”. The “BMD, BV, and vBMD compared with control” value in data set [6] (micro-CT, ZA 0.2 mg/kg s.c. twice weekly for 4 weeks, each value higher than normal group) is recorded as “significantly increased”.
